pIC50: −log10 of the molar value.

Drawing on patent US4758586A, “Indolyl compounds and hyposensitivity use thereof” (USV Pharmaceutical Corp., priority 1986, dated 1988), this text covers IC50 for one compound.

One experiment deals with T1, 5-lipoxygenase (Rattus norvegicus, UniProt P12527).
T1 construct: A suspension of rat neutrophils in buffer; endogenous in cells; host or cells: rat neutrophils (PMN)
T1 sequence (P12527 1-673): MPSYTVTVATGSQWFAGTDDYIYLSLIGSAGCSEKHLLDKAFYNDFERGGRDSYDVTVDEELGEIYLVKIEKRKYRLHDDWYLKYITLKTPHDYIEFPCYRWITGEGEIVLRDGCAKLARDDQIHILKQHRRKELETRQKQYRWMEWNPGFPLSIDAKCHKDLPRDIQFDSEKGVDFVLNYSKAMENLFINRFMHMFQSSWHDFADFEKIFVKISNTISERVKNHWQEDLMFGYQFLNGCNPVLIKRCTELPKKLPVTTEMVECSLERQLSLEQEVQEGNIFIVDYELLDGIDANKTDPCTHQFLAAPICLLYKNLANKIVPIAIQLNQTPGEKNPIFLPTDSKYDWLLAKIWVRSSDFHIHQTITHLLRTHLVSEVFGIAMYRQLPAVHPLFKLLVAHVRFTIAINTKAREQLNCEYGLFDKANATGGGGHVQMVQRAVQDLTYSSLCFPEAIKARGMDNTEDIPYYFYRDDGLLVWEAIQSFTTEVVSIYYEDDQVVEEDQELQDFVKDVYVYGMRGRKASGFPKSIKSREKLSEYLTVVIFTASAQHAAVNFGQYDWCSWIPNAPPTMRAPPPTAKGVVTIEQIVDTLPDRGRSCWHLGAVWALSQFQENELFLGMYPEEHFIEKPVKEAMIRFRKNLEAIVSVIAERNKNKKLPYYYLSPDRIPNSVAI
The experiment can be described thus: Protocol for detecting inhibitors of the lipoxygenase pathway (5-HETE formation in rat neutrophils). In kind it is cell-based. As to conditions: rat PMN, [14C]-arachidonic acid + A23187, 5-HETE; read-out: LOX, (RAT PMN) I50. The procedure: Protocol for Detecting Inhibitors of the Lipoxygenase Pathway
A suspension of rat neutrophils in buffer is incubated for 3 minutes at 30° C. with [^14 C]-arachidonic acid (AA) and Calcium Ionophore A23187. Citric acid (2M) is used to quench the reaction. Following the addition of a trace amount of (^3 H)-5-HETE together with an excess of unlabeled 5-HETE to each tube, the mixture is extracted with chloroform/methanol. The organic layer is washed with dilute acid and an aliquot is transferred to glass tubes and dried. The residue is dissolved in a small volume of chloroform and an aliquot is spotted on silica get TLC sheets, which are developed with an ethyl acetate/isooctane/water acetic acid solvent system. The 5-HETE spots are visualized with iodine, cut out and placed in scintillation vials for counting. After adjusting for the extraction efficiency, the amount (pmole) of [^14 C]-5-HETE in each of the tubes is quantitated. The net pmoles of 5-HETE are obtained by subtracting the pmoles of 5-HETE in the tubes containing […]. The ability of the test compounds to modulate the activity of this enzyme is determined by a decrease or increase in the net amount of 5-HETE produced.

A further experiment relates to Phospholipase C (PLC). Nature of the experiment: In vitro assay for inhibitors of Phospholipase C (PLC) from rat platelets. In kind it is biochemical. As to conditions: read-out: PLC, I50. From the text:
A. Protocol For In Vitro Assay For Inhibitors Of Phospholipase C (PLC)
The PLC employed in this screen is obtained by aggregation of purified rat platelets in the presence of CaCl2 and ADP. In the enzyme assay phosphatidylinositol having ^3 H -labeled arachidonate residues at R2 is employed as substrate. PLC acts by cleaving the phosphate ester bond yielding diglyceride as follows: [drawing 18]
Following completion of the reaction, the assay medium is acidified and extracted with hexane which takes up unreacted substrate and diglyceride. The hexane extract is passed over a short silica gel column which retains 99% of the phosphatidylinositol. The ^3 H-labeled diglyceride is not retained […]. The diglyceride is conveniently quantitated by liquid scintillation spectrometry.
The compounds were tested at 300 u in a buffer containing 0.06 mM unlabeled phosphatidylcholine (PC), 20-30,000 cpm of (CPC), 150 mM NaCl, 5 mM CaCl2 and 50 mM tris(hydroxymethyl)methylaminopropanesulfonic acid buffer, adjusted to pH 9.0 with 1N NaOH. The temperature of the buffer was maintained at a temperature of 37° C. The reaction was initiated by addition of the enzyme and it was terminated 10 minutes later by addition of 1 ml of 1N HCl.
Following acidification, the samples were extracted with 2 ml of isopropyl alcohol and 2 ml of hexane, vortexed and allowed to stand until the phases separate. […] and some unreacted substrate were taken up in the isopropanol-saturated hexane. The hexane phase of the extraction mixture was transferred to a short silica gel column which retains unreacted phosphatidylinositol, but not the 3H-diglyceride. The column effluent was collected directly in scintillation vials. The columns were washed once with additional 2 ml of hexane. The radiolabelled diglycerides were quantitated by liquid scintillation.

Take `CCC(=CC=Cc1cn(Cc2ccccc2)c2ccccc12)C(=O)O` [Example 9, 5-(1-Benzylindol-3-yl)-2-Ethyl-2,4-Pentadienoic Acid]: the pIC50 is 5.64 at 5-lipoxygenase and 4.43 in the experiment on Phospholipase C (PLC).
